Reference: patent publication US10548940B2, “Pharmaceutical composition for controlling blood lipids and body weight, and use thereof” (BEIJING HEBABIZ MANAGEMENT CO., LTD, priority 2014, dated 2020)

Columns and labels:
hyperlipidemia rats [1] = test: Further study on the effect of drugs on lowering blood fat and body weight in high fat diet rats, lower doses (Examples 6); type: in vivo, Wistar rats
Procedure: Take ZL004, ZL051 and ZL006 (0.5% CMC-Na solution, 7.5 mg/ml, 15 mg/ml, or 30 mg/ml), take atorvastatin as positive control drug (0.5% CMC-Na solution, 0.5 mg/ml), for the following experiment.
130 Wistar rats (male weight; 150 g; feeding environment: SPF grade animal room, free feeding, 12 h light/12 h dark) after adaptive breeding for one week, were randomly divided into normal control group (10 rats) and high-fat diet group (120 rats), and each rat was then numbered. The normal control group were fed with normal diet, high fat diet group were fed with high fat diet (78.8% basal diet (purchased from Beijing, Australia to feed Co. Ltd.)+1% cholesterol, +10% egg yolk powder, +10% lard, +0.2% sodium cholate), After 30 days, after determination, the hyperlipemia rats of high fat diet group were randomly divided into 10 groups (high fat model group, atorvastatin group (atorvastatin 5 mg/kg daily administration), ZL004 high dose group (daily administration of ZL004 300 mg/kg), ZL004 middle dose group (daily administration of ZL004 150 mg/kg), ZL004 low dose group (daily administration of ZL004 75 mg/kg), ZL051 high dose group (daily administration of ZL051 300 mg/kg), ZL051 middle dose group (daily administration of ZL051 150 mg/kg), ZL051 low dose group (daily administration of ZL051 75 mg/kg), ZL006 high dose group (daily administration of ZL006 300 mg/kg), ZL006 middle dose group (daily administration of ZL006 150 mg/kg), ZL006 low dose group (daily administration of ZL006 75 mg/kg), 10 rats in each group. The normal control group and high fat model group daily orally administered 0.5% CMC-Na solution, drug admonition group were orally administered with corresponding drugs administered continuously for 30 days to determine the levels of total cholesterol (TC), triacylglycerol (TG), high density lipoprotein cholesterol (HDL-C), low density lipoprotein cholesterol (LDL-C) and weight. No safety problems found in the experiment.

hyperlipidemia rats [2] = test: Effect of drugs on reducing blood lipid and body weight in high fat diet rats (Examples 5); type: in vivo, Wistar rats
Procedure: Take the medicine ZL004, ZL005 and ZL006, 0.5% CMC-Na (carboxymethyl cellulose sodium) solution (25 mg/ml or 50 mg/ml); take atorvastatin as positive control drug (0.5% CMC-Na solution, 0.5 mg/ml), for the following experiment.
120 Wistar rats (male weight; 150 g; feeding environment: SPF grade animal room, free feeding, 12 h light/12 h dark) after adaptive breeding for one week, were randomly divided into normal control group (10 rats) and high-fat diet group (110 rats), and each rat was then numbered. The normal control group were fed with normal diet, high fat diet group were fed with high fat diet (78.8% basal diet (purchased from Beijing, Australia to feed Co. Ltd.) +1% cholesterol, +10% egg yolk powder, +10% lard, +0.2% sodium cholate), 30 days later, after determination, the hyperlipemia rats of high fat diet group were randomly divided into 10 groups (high fat model group, atorvastatin group (atorvastatin 5 mg/kg daily administration), ZL004 high dose group (daily administration of ZL004 500 mg/kg), ZL004 low dose group (daily administration of ZL004 […]), ZL005 high dose group (daily administration of ZL005 500 mg/kg), ZL005 low dose group (daily administration of ZL005 […]), ZL006 high dose group (daily administration of ZL006 500 mg/kg), ZL006 low dose group (daily administration of ZL006 […]), 10 rats in each group. The normal control group and high fat model group daily orally administered 0.5% CMC-Na solution, drug admonition group were orally administered with corresponding drugs administered continuously for 30 days to determine the levels of total cholesterol (TC), triacylglycerol (TG), high density lipoprotein cholesterol (HDL-C), low density lipoprotein cholesterol (LDL-C) and weight. No safety problems were found in the experiment.

[3] = high fat diet hyperlipidemia rats, oral daily for 30 days, 5 mg/kg, model group = 100%
[4] = high fat diet hyperlipidemia rats, oral daily for 30 days, 5 mg/kg, x ± s, n = 10
[5] = serum HDL cholesterol, high fat rats, oral daily 30 days, 5 mg/kg, model group = 100%, x ± s, n = 10
[6] = serum LDL cholesterol, high fat rats, oral daily 30 days, 5 mg/kg, model group = 100%, x ± s, n = 10
[7] = serum total cholesterol, high fat rats, oral daily 30 days, 5 mg/kg, model group = 100%, x ± s, n = 10
[8] = serum triacylglycerol, high fat rats, oral daily 30 days, 5 mg/kg, model group = 100%, x ± s, n = 10
[9] = each dose (250 and 500 mg/kg), atorvastatin 5 mg/kg, oral daily 30 days, versus model group

CC(C)c1c(C(=O)Nc2ccccc2)c(-c2ccccc2)c(-c2ccc(F)cc2)n1CC[C@@H](O)C[C@@H](O)CC(=O)O [Atorvastatin, atorvastatin]
effect on the body weight of hyperlipidemia rats (in words) (hyperlipidemia rats [1]; each dose (75, 150, 300 mg/kg), atorvastatin 5 mg/kg, oral daily 30 days, versus high fat model group): reduced the body weight, close to or even lower than the normal control group | effect on HDL-C (in words) (hyperlipidemia rats [1]; each dose (75, 150, 300 mg/kg), atorvastatin 5 mg/kg, oral daily 30 days, versus model group): significantly increase | body weight % (/high fat model group) (hyperlipidemia rats [1]; [3]): 90.37 ± 12.13% | body weight (hyperlipidemia rats [1]; [4]): 465.7 ± 62.5 g | effect on rat serum TC, TG, LDL-C (in words) (hyperlipidemia rats [1]; middle/high doses (150, 300 mg/kg), atorvastatin 5 mg/kg, oral daily 30 days, versus model group): significantly reduce | HDL-C % (/model group) (hyperlipidemia rats [1]; [5]): 176.99 ± 37.57 % | LDL-C % (/model group) (hyperlipidemia rats [1]; [6]): 67.93 ± 29.54 % | TC % (/model group) (hyperlipidemia rats [1]; [7]): 77.03 ± 23.18 % | TG % (/model group) (hyperlipidemia rats [1]; [8]): 69.99 ± 17.21 % | effect on the body weight of hyperlipidemia rats (in words) (hyperlipidemia rats [2]; each dose (250 and 500 mg/kg), atorvastatin 5 mg/kg, oral daily 30 days, versus high fat model group): reduced the body weight, close to or even lower than the normal control group | effect on HDL-C (in words) (hyperlipidemia rats [2]; [9]): significantly increase | effect on rat serum TC, TG, LDL-C (in words) (hyperlipidemia rats [2]; [9]): significantly reduce | body weight % (/high fat model group) (hyperlipidemia rats [2]; [3]): 90.77 ± 9.22% | body weight (hyperlipidemia rats [2]; [4]): 520.1 ± 52.8 g | HDL-C % (/model group) (hyperlipidemia rats [2]; [5]): 178.57 ± 57.92 % | LDL-C % (/model group) (hyperlipidemia rats [2]; [6]): 33.13 ± 11.62 % | TC % (/model group) (hyperlipidemia rats [2]; [7]): 81.77 ± 14.65 % | TG % (/model group) (hyperlipidemia rats [2]; [8]): 70.50 ± 23.19 %
